The results in this text go back to PubChem BioAssay AID330 (DTP/NCI, 2004).

Where “and” joins values, the source holds several entries; their conditions need not be identical. Equal entries are not always repeated. Inconclusive results and toxic doses are left out.

The test system of the assay is P388 leukemia ip, CD2F1 mice, survival T/C. The assay is described as follows: NCI In Vivo Anticancer Drug Screen. Data for tumor model P388 Leukemia (intraperitoneal) in CD2F1 (CDF1) mice. The settings on record: endpoint: median survival time, higher = longer survival. The essentials: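 Mice carrying the transplanted tumor received test compound or vehicle. Survival was recorded in each group, and the value is the treated-group measurement divided by that of the vehicle-treated control group.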

The mark [1] stands for this setting: dose: 50.0 mg/kg/injection, schedule: Q01DX005 (ip), vehicle: saline with Tween-80.
The mark [2] stands for this setting: dose: 100.0 mg/kg/injection, schedule: Q01DX001 (ip), vehicle: Klucel (hydroxypropylcellulose) (HPC).
Setting [3] is: dose: 200.0 mg/kg/injection, schedule: Q01DX001 (ip), vehicle: Klucel (hydroxypropylcellulose) (HPC).
The mark [4] stands for this setting: dose: 50.0 mg/kg/injection, schedule: Q01DX005 (ip), vehicle: Klucel (hydroxypropylcellulose) (HPC).
Setting [5] is: dose: 100.0 mg/kg/injection, schedule: Q01DX005 (ip), vehicle: Klucel (hydroxypropylcellulose) (HPC).
Where [6] appears, read: dose: 200.0 mg/kg/injection, schedule: Q01DX005 (ip), vehicle: Klucel (hydroxypropylcellulose) (HPC).
[7] abbreviates: dose: 60.0 mg/kg/injection, schedule: Q01DX005 (ip), vehicle: saline.
Where [8] appears, read: dose: 120.0 mg/kg/injection, schedule: Q01DX005 (ip), vehicle: saline.
The mark [9] stands for this setting: dose: 240.0 mg/kg/injection, schedule: Q01DX005 (ip), vehicle: saline.
Where [10] appears, read: dose: 50.0 mg/kg/injection, schedule: Q01DX009 (ip), vehicle: saline with Tween-80.
The mark [11] stands for this setting: dose: 100.0 mg/kg/injection, schedule: Q01DX009 (ip), vehicle: saline with Tween-80.
[12] abbreviates: dose: 25.0 mg/kg/injection, schedule: Q01DX005 (ip), vehicle: Klucel (hydroxypropylcellulose) (HPC).
Setting [13] is: dose: 60.0 mg/kg/injection, schedule: Q01DX005 (ip), vehicle: saline with Tween-80.
Setting [14] is: dose: 120.0 mg/kg/injection, schedule: Q01DX005 (ip), vehicle: saline with Tween-80.
[15] abbreviates: dose: 240.0 mg/kg/injection, schedule: Q01DX005 (ip), vehicle: saline with Tween-80.

Turning to `Cc1nccc2nnc(C)n12`, the T/C runs as follows: (dose: 100.0 mg/kg/injection, schedule: Q04DX003 (ip), vehicle: saline) 98 % of control; (dose: 200.0 mg/kg/injection, schedule: Q04DX003 (ip), vehicle: saline) 98 % of control; (dose: 400.0 mg/kg/injection, schedule: Q04DX003 (ip), vehicle: saline) 95 % of control.
Regarding `O=C(CSc1nccc(=O)[nH]1)c1ccccc1`, the T/C was 103 % of control under setting [1]; 103 % of control (dose: 100.0 mg/kg/injection, schedule: Q01DX005 (ip), vehicle: saline with Tween-80); 100 % of control (dose: 200.0 mg/kg/injection, schedule: Q01DX005 (ip), vehicle: saline with Tween-80).
Regarding `Cc1[nH]cnc1CSCCN=C(N)n1[nH]cc(-c2ccc(Cl)cc2)c1=O`, the T/C under setting [2] was 100 % of control; the T/C under setting [3] was 97 % of control; the T/C (dose: 400.0 mg/kg/injection, schedule: Q01DX001 (ip), vehicle: Klucel (hydroxypropylcellulose) (HPC)) is 101 % of control.
In the case of `CCC1COC(COCc2ccccc2)=N1` (configuration not stated), the T/C was 98 % of control (dose: 100.0 mg/kg/injection, schedule: Q01DX002 (ip), vehicle: saline); 95 % of control (dose: 200.0 mg/kg/injection, schedule: Q01DX002 (ip), vehicle: saline); 95 % of control (dose: 400.0 mg/kg/injection, schedule: Q01DX002 (ip), vehicle: saline).
Turning to `NC(=O)c1ccc(Cl)cc1C(N)=O`, the T/C under setting [4] was 99 % of control, the T/C under setting [5] was 105 % of control and the T/C under setting [6] is 99 % of control.
As for `COc1cc2c(cc1OC)-c1c(C)c3ccc(OC)c(NCCO)c3c[n+]1CC2`, the T/C was 102 % of control (dose: 50.0 mg/kg/injection, schedule: Q04DX003 (ip), vehicle: water) and 107 % of control (dose: 100.0 mg/kg/injection, schedule: Q04DX003 (ip), vehicle: water).
With `O=C(CCl)N1c2ccccc2Sc2ccccc21`, the T/C by setting is: (dose: 12.5 mg/kg/injection, schedule: Q01DX009 (ip), vehicle: water) 105 % of control; (dose: 25.0 mg/kg/injection, schedule: Q01DX009 (ip), vehicle: water) 100 % of control; (dose: 50.0 mg/kg/injection, schedule: Q01DX009 (ip), vehicle: water) 107 % of control; (dose: 100.0 mg/kg/injection, schedule: Q01DX009 (ip), vehicle: water) 111 % of control; (dose: 200.0 mg/kg/injection, schedule: Q01DX009 (ip), vehicle: water) 114 % of control.
Turning to `C=C(C)COc1ccc(C)cc1`, the T/C was 108 % of control (dose: 25.0 mg/kg/injection, schedule: Q01DX009 (ip), vehicle: other); 104 % of control (dose: 50.0 mg/kg/injection, schedule: Q01DX009 (ip), vehicle: other); 110 % of control (dose: 100.0 mg/kg/injection, schedule: Q01DX009 (ip), vehicle: other).
`Cc1cccnc1Nc1ncccc1C`: the T/C under setting [7] was 102 % of control, the T/C under setting [8] was 102 % of control and the T/C under setting [9] was 102 % of control.
Consider `Cc1ccc2c(c1)=N/C(=N/c1[nH]c(O)c3ccccc13)N=2`, for which the T/C by setting is: under setting [10], 100 % of control and 96 % of control; under setting [11], 99 % of control.
As to `CCOC(=O)NC(=O)CNc1ncc([N+](=O)[O-])s1`, the T/C is 100 % of control under setting [2] and 108 % of control under setting [3].
Consider `C=C(C)C1Cc2cc(C(C)=O)c(O)c(OC)c2O1` (configuration not stated), for which the T/C under setting [12] is 101 % of control, the T/C under setting [4] was 108 % of control, the T/C under setting [5] was 97 % of control and the T/C under setting [6] was 99 % of control.
Turning to `CCCN1C(=O)C2C3CCC(O3)C2C1=O` (configuration not stated), the T/C reads like this: under setting [7], 100 % of control; under setting [8], 109 % of control; under setting [9], 98 % of control.
Take `CC(N)C12CC3CC(CC(C3)C1)C2` (configuration not stated): the T/C is, setting by setting: (dose: 25.0 mg/kg/injection, schedule: Q04DX002 (ip), vehicle: saline) 108 % of control; (dose: 50.0 mg/kg/injection, schedule: Q04DX002 (ip), vehicle: saline) 100 % of control; (dose: 100.0 mg/kg/injection, schedule: Q04DX002 (ip), vehicle: saline) 100 % of control; (dose: 100.0 mg/kg/injection, schedule: Q04DX002 (ip), vehicle: suspension in saline) 101 % of control.
As to `O=C(O)C(Cc1ccccc1)NC(c1ccccc1)P(=O)(O)O` (configuration not stated), the T/C under setting [13] is 101 % of control, the T/C under setting [14] is 99 % of control and the T/C under setting [15] is 105 % of control.
In the case of `O=C1NC2NC(=O)NC2N1` (configuration not stated), the T/C (dose: 100.0 mg/kg/injection, schedule: Q04DX003 (ip), vehicle: Klucel (hydroxypropylcellulose) (HPC)) is 94 % of control; the T/C (dose: 200.0 mg/kg/injection, schedule: Q04DX003 (ip), vehicle: Klucel (hydroxypropylcellulose) (HPC)) was 107 % of control; the T/C (dose: 400.0 mg/kg/injection, schedule: Q04DX003 (ip), vehicle: Klucel (hydroxypropylcellulose) (HPC)) is 100 % of control.
Take `CC(=O)/C(=C\c1ccc(Cl)c(Cl)c1)C(=O)C(C)CN(C)C` (configuration not stated): the T/C runs as follows: (dose: 12.5 mg/kg/injection, schedule: Q01DX005 (ip), vehicle: saline with Tween-80) 119 % of control and 120 % of control; (dose: 25.0 mg/kg/injection, schedule: Q01DX005 (ip), vehicle: saline with Tween-80) 118 % of control; under setting [1], 115 % of control and 116 % of control and 121 % of control.
As for `O=CC1(c2ccco2)SCCCS1`, the T/C runs as follows: under setting [10], 106 % of control; under setting [11], 104 % of control; (dose: 200.0 mg/kg/injection, schedule: Q01DX009 (ip), vehicle: saline with Tween-80) 104 % of control.
On to `CCOC(=O)CCC(=O)Oc1ccc2c(c1)C(=O)c1ccc(OC(=O)CCC(=O)OCC)cc1C2=O`, for which the T/C runs as follows: (dose: 1.87 mg/kg/injection, schedule: Q01DX005 (ip), vehicle: Klucel (hydroxypropylcellulose) (HPC)) 99 % of control; (dose: 3.75 mg/kg/injection, schedule: Q01DX005 (ip), vehicle: Klucel (hydroxypropylcellulose) (HPC)) 99 % of control; (dose: 7.5 mg/kg/injection, schedule: Q01DX005 (ip), vehicle: Klucel (hydroxypropylcellulose) (HPC)) 99 % of control and 91 % of control.
Consider `Cc1ccc(NC(=O)c2cc3ccccc3cc2O)c(C)c1.Cc1ccc(NC(=O)c2cc3ccccc3cc2O)c(C)c1.[Fe+2]`, for which the T/C is 92 % of control (dose: 50.0 mg/kg/injection, schedule: Q01DX009 (ip), vehicle: saline); 104 % of control (dose: 100.0 mg/kg/injection, schedule: Q01DX009 (ip), vehicle: saline); 90 % of control (dose: 200.0 mg/kg/injection, schedule: Q01DX009 (ip), vehicle: saline).
Take `O=[N+]([O-])C1=NOCC1`: the T/C runs as follows: (dose: 50.0 mg/kg/injection, schedule: Q01DX005 (ip), vehicle: suspension in saline) 95 % of control; (dose: 100.0 mg/kg/injection, schedule: Q01DX005 (ip), vehicle: suspension in saline) 95 % of control.
As to `CCCCN=C(N)N/N=C(\C)c1ccc2c(c1)Cc1ccccc1-2`, where the note is “dose: 25.0 mg/kg/injection, schedule: Q04DX002 (ip), vehicle: saline with Tween-80”, the T/C was 104 % of control.
`CCCCOC(=O)NP1(=O)NCc2ccccc2CN1`: the T/C by setting is: (dose: 12.5 mg/kg/injection, schedule: Q01DX005 (ip), vehicle: Klucel (hydroxypropylcellulose) (HPC)) 93 % of control; under setting [12], 87 % of control; under setting [4], 91 % of control and 93 % of control; under setting [6], 91 % of control.
Consider `COc1ccc(C2=CC(OO)(C(C)(C)C)C(=O)C(C(C)(C)C)=C2)cc1.Oc1ccccc1C=NCCC[N-]CCCN=Cc1ccccc1O.[Co]` (configuration not stated), for which the T/C (dose: 50.0 mg/kg/injection, schedule: Q01DX009 (ip), vehicle: Klucel (hydroxypropylcellulose) (HPC)) was 101 % of control; the T/C (dose: 100.0 mg/kg/injection, schedule: Q01DX009 (ip), vehicle: Klucel (hydroxypropylcellulose) (HPC)) is 101 % of control; the T/C (dose: 200.0 mg/kg/injection, schedule: Q01DX009 (ip), vehicle: Klucel (hydroxypropylcellulose) (HPC)) was 100 % of control.
On to `CN(C)C1=c2c(=O)n(C)c(=O)n(C)c2=NC2C=CC=CN12` (configuration not stated), for which the T/C is, setting by setting: under setting [4], 100 % of control; under setting [5], 96 % of control; under setting [6], 86 % of control.
Take `CC1C(=O)OC(C(Cl)(Cl)Cl)N1C` (configuration not stated): the T/C is, setting by setting: under setting [13], 97 % of control; under setting [14], 97 % of control; under setting [15], 94 % of control.
